Assay results published in patent publication US9724357B2, “Methods for preserving photoreceptor cell viability following retinal detachment” (Massachusetts Eye & Ear Infirmary, priority 2011, dated 2017).

Experiments:
Assay type in all cases: in vivo, Brown Norway rats
[1] = system: photoreceptor cells of detached retina (outer nuclear layer); assay: TUNEL staining of photoreceptor death after experimental retinal detachment; settings: administration started six hours after induction of retinal detachment; P=0.03; readout not given
Source text: (§1) In the examples described herein, all animal experiments adhered to the Association for Research in Vision and Ophthalmology Statement for the Use of Animals in Ophthalmic and Vision Research, and protocols were approved by the Animal Care Committee of the Massachusetts Eye and Ear Infirmary. Adult male Brown Norway rats (200 to 300 g) were purchased from Charles River Laboratories (Wilmington, Mass.). The rats were fed standard laboratory chow and allowed free access to water in an air-conditioned room with a 12 hour light/12 hour dark cycle.
(§2) Experimental retinal detachment was induced by subretinal injection of hyaluronic acid as previously described (Hisatomi T et al. (2001) AM. J. PATHOL. 158:1271-1278). […] Body temperature was monitored and the animals were kept on a heating pad during the procedure as well as during the recovery period. […]
(§3) All values disclosed below were expressed as the mean±SD. Statistical differences between two groups were analyzed by Mann-Whitney U test. […]
Photoreceptor death was assessed by TUNEL staining, which detects DNA fragmentation in apoptotic or necrotic nuclei. […] Fluorescence was imaged using a DM RXA microscope (Leica, Solms Germany) and digitally captured. The number of TUNEL-positive cells per mm^2 at the central area of the detached retina was counted in a masked fashion. […]

[2] = system: photoreceptor cells of detached retina (outer nuclear layer); assay: Outer nuclear layer (ONL) thickness after experimental retinal detachment; settings: 500 mg/kg/day i.p., mean±SD
Source text: as §1, §2, §3
Photoreceptor loss was evaluated by measuring the thickness of the outer nuclear layer (ONL). ONL thickness was determined using National Institutes of Health ImageJ software. Thickness was measured based on the outer boundaries of the DAPI nuclear stain. […]

TNF-α = TNF-α ELISA on retinal lysates after retinal detachment; settings: 24 hours after retinal detachment; 500 mg/kg/day i.p.; vs vehicle
Source text: as §1
(§4) Experimental retinal detachment was induced by subretinal injection of hyaluronic acid as previously described (Hisatomi T et al. (2001) AM. J. PATHOL. 158:1271-1278). Briefly, rats were anesthetized with 100 μl of a mixture of 5 parts Ketamine (100 mg/ml, Phoenix Pharmaceutical, Inc., St Joseph, Mo.), 4 parts PBS and 1 part Xylazine (100 mg/ml, Lloyd Laboratories, Inc., Shenandoah, Iowa). Body temperature was monitored and the animals were kept on a heating pad during the procedure as well as during the recovery period. The pupils were dilated with drops of phenylephrine 5%/tropicamide 0.5%. […]
(§5) In order to measure inflammatory cytokines, eight eyes from each group (animals without retinal detachment as well as animals with retinal detachment that received vehicle or TUDCA) were analyzed using ELISA assays. […]

MCP-1 = MCP-1 ELISA on retinal lysates after retinal detachment; settings: samples 24 and 72 hours after retinal detachment (FIG. 2B: one day); 500 mg/kg/day i.p.; vs vehicle
Source text: as §1, §4, §5

CD68+ cells = assay: Macrophage infiltration (CD68+ immunostaining) in detached retina; settings: one day after induction of retinal detachment; 500 mg/kg/day i.p.; vs vehicle
Source text: as §1
as §4, with “period.” for “period. The pupils were dilated with drops of phenylephrine 5%/tropicamide 0.5%.”
In order to assess macrophage infiltration in detached retinas, six eyes from each group (rats treated with vehicle or TUDCA) were analyzed. […] The number of CD68+ cells per […] was determined using the same method as described above for the quantification of TUNEL-positive cells.

protein carbonyl content = assay: Protein carbonyl content ELISA (oxidative stress) in retina after retinal detachment; settings: one day (24 hours) after retinal detachment; 500 mg/kg/day i.p.; vs vehicle
Source text: as §1
as §4, with “period.” for “period. The pupils were dilated with drops of phenylephrine 5%/tropicamide 0.5%.”
In order to assess the effect of TUDCA treatment on oxidative stress, the protein carbonyl content in the retina was determined Eight eyes from each group (animals without retinal detachment as well as animals with retinal detachment that received vehicle or TUDCA) were analyzed using ELISA assays. […]

caspase 2 = assay: Caspase 2 colorimetric activity assay in retinal lysates after retinal detachment; settings: retinal lysates 24 hours after retinal detachment; 500 mg/kg/day i.p.; P<0.05
Source text: as §1
as §4, with “period.” for “period. The pupils were dilated with drops of phenylephrine 5%/tropicamide 0.5%.”
(§6) The caspase assays were performed on the retina of animals without retinal detachment (n=6) as well as animals with retinal detachment that received vehicle (n=8) or TUDCA (n=8). […] Optical density was assessed at 405 nm and normalized for protein concentration, initial optical density, and compared to a sample filled with buffer. […]

caspase 3 = assay: Caspase 3 colorimetric activity assay in retinal lysates after retinal detachment; settings: retinal lysates 24 hours after retinal detachment; 500 mg/kg/day i.p.; P<0.05
Source text: as §1
as §4, with “period.” for “period. The pupils were dilated with drops of phenylephrine 5%/tropicamide 0.5%.”
as §6

caspase 9 = assay: Caspase 9 colorimetric activity assay in retinal lysates after retinal detachment; settings: retinal lysates 24 hours after retinal detachment; 500 mg/kg/day i.p.; P<0.05
Source text: as §1
as §4, with “period.” for “period. The pupils were dilated with drops of phenylephrine 5%/tropicamide 0.5%.”
as §6

caspase 8 = assay: Caspase 8 colorimetric activity assay in retinal lysates after retinal detachment; settings: retinal lysates 24 hours after retinal detachment; 500 mg/kg/day i.p.
Source text: as §1
as §4, with “period.” for “period. The pupils were dilated with drops of phenylephrine 5%/tropicamide 0.5%.”
as §6

caspase 11 = assay: Caspase 11 western blot of vitreous and neural retina after retinal detachment; settings: samples three days after retinal detachment, 500 mg/kg/day i.p.
CHOP = CHOP western blot (ER stress) of vitreous and neural retina after retinal detachment; settings: three days after retinal detachment, systemic administration 500 mg/kg/day i.p.
Source text: as §1
as §4, with “0.5%. A partial retinal detachment was induced with a transscleral, subretinal injection of approximately 50 μl of 1% sodium hyaluronate (Provisc, Alcon Laboratories Inc., Fort Worth, Tex.).” for “0.5%.”

effect on retinal detachment-induced activity of caspase 2 (caspase 2): significantly decreased
effect on retinal detachment-induced activity of caspase 3 (caspase 3): significantly decreased
effect on retinal detachment-induced activity of caspase 9 (caspase 9): significantly decreased
effect on activity of caspase 8 (caspase 8): did not alter
SMILES: C[C@H](CCC(=O)NCCS(=O)(=O)O)[C@H]1CC[C@H]2[C@@H]3[C@@H](O)C[C@@H]4C[C@H](O)CC[C@]4(C)[C@H]3CC[C@]12C [TUDCA, tauroursodeoxycholic acid]
neuroprotection with delayed treatment (FIG. 1D) [1]: showed efficient neuroprotection
ONL thickness ratio (normalized, detached/attached retina) ([2]; five days after detachment, vehicle 0.57±0.04, P=0.002): 0.79±0.03
ONL thickness ratio (normalized, detached/attached retina) ([2]; three days of retinal detachment, vehicle 0.65±0.03, P=0.0016): 0.84±0.03
effect on levels of TNF-α (TNF-α): did not affect
effect on levels of MCP-1 (MCP-1): did not affect
effect on macrophage infiltration (CD68+ cells) (CD68+ cells): did not affect macrophage infiltration
effect on protein carbonyl content (protein carbonyl content): prevented an increase in protein carbonyl content
effect on activity of caspase 11 (caspase 11): did not alter
effect on CHOP expression (CHOP): did not significantly alter CHOP expression
